# Test results: patent US6440986B2, “HIV Inhibiting pyrimidine derivatives” (Janssen Pharmaceutica, N.V., priority 1998, dated 2002)
# Structures can show the parent of a compound that is named as a salt. Where two headings read alike, the source gives them in different places.
# Columns and labels:
# [1] = tested on: HIV-1; assay: in vitro anti-HIV assay: inhibition of the HIV-induced cytopathic effect in MT-4 cells (MTT); type: cell-based; conditions: dose achieving 50% protection of HIV-infected MT-4 cells against cytopathic effect, OD 540 nm
# Description: (§1) A rapid, sensitive and automated assay procedure was used for the in vitro evaluation of anti-HIV agents. An HIV-1 transformed T4-cell line, MT-4, which was previously shown (Koyanagi et al., Int. J. Cancer, 36, 445-451, 1985) to be highly susceptible to and permissive for HIV infection, served as the target cell line. Inhibition of the HIV-induced cytopathic effect was used as the end point. The viability of both HIV- and mock-infected cells was assessed spectrophotometrically via the in situ reduction of 3-(4,5-dimethylthiazol-2-yl)-2,5-diphenyltetrazolium bromide (MTT). […] The percent protection achieved by the compound in HIV-infected cells was calculated by the following formula: [formula]
# (§2) whereby (ODT)HIV is the optical density measured with a given concentration of the test compound in HIV-infected cells; (ODC)HIV is the optical density measured for the control untreated HIV-infected cells: (ODC)MOCK is the optical density measured for the control untreated mock-infected cells; all optical density values were determined at 540 nm. […] The ratio of CC50 to IC50 was defined as the selectivity index (SI).
# [2] = tested on: MT-4 cells (mock-infected); assay: cytotoxicity in mock-infected MT-4 cells (MTT); type: cell-based
# Description: as §1, with “An HIV-1 transformed T4-cell line, MT-4, which was previously shown (Koyanagi et al., Int. J. Cancer, 36, 445-451, 1985) to be highly susceptible to and permissive for HIV infection, served as the target cell line.” left out
# as §2
# [3] = 50% cytotoxic concentration, reduces absorbance of mock-infected MT-4 control by 50%, MTT, read-out: CC50
Structure (SMILES),IC50 [1] [nM],CC50 [2] [nM],"CC50 [2, 3] [nM]"
N#Cc1ccc(Nc2nc(Cc3c(Cl)cccc3Cl)cc(NCCCCO)n2)cc1 [Compound 1],27,49700,–
N#Cc1ccc(Nc2nc(Cc3c(Cl)cccc3Cl)cc(NCCO)n2)cc1 [Compound 2],35,> 100000,–
N#Cc1ccc(Nc2nc(Cc3c(Cl)cccc3Cl)cc(NCC(O)c3ccccc3)n2)cc1 (stereo not shown) [Compound 4],315,> 100000,–
N#Cc1ccc(Nc2nc(Cc3c(Cl)cccc3Cl)cc(NCCCN3CCCC3=O)n2)cc1 [Compound 5],–,56200,–
N#Cc1ccc(Nc2nc(Cc3c(Cl)cccc3Cl)cc(NCCOCCO)n2)cc1 [Compound 6],20,24400,–
CC(C)OCCCNc1cc(Cc2c(Cl)cccc2Cl)nc(Nc2ccc(C#N)cc2)n1 [Compound 7],975,> 100000,–
COc1cccc(CCNc2cc(Cc3c(Cl)cccc3Cl)nc(Nc3ccc(C#N)cc3)n2)c1 [Compound 8],8150,> 100000,–
N#Cc1ccc(Nc2nc(Cc3c(Cl)cccc3Cl)cc(NCC(O)CO)n2)cc1 (stereo not shown) [Compound 9],37,58600,–
COc1ccc(CCNc2cc(Cc3c(Cl)cccc3Cl)nc(Nc3ccc(C#N)cc3)n2)cc1 [Compound 10],2530,> 100000,–
N#Cc1ccc(Nc2nc(Cc3c(Cl)cccc3Cl)cc(NCc3ccccc3)n2)cc1 [Compound 12],1680,55100,–
N#Cc1ccc(Nc2nc(Cc3c(Cl)cccc3Cl)cc(NCCc3cccs3)n2)cc1 [Compound 14],2180,89000,–
"N#Cc1ccc(Nc2nc(Cc3c(Cl)cccc3Cl)cc(NO)n2)cc1 [Compound 15, 4-[[4-[(2,6-dichloro-phenyl)methyl]-6-(hydroxyamino)-2-pyrimidinyl]amino]benzonitrile dihydrobromide.pentahydrate]",3,9000,–
N#Cc1ccc(Nc2nc(Cc3c(Cl)cccc3Cl)cc(NCCc3ccccn3)n2)cc1 [Compound 16],389,41200,–
CCCCCCCCCCCC(=O)Nc1cc(Cc2c(Cl)cccc2Cl)nc(Nc2ccc(C#N)cc2)n1 [Compound 18],2100,59900,–
N#CCCNc1cc(Cc2c(Cl)cccc2Cl)nc(Nc2ccc(C#N)cc2)n1 [Compound 19],6,53600,–
CCOC(=O)Nc1cc(Cc2c(Cl)cccc2Cl)nc(Nc2ccc(C#N)cc2)n1 [Compound 20],26,36500,–
CC(=O)Nc1cc(Cc2c(Cl)cccc2Cl)nc(Nc2ccc(C#N)cc2)n1 [Compound 21],17,50600,–
CCCC(=O)Nc1cc(Cc2c(Cl)cccc2Cl)nc(Nc2ccc(C#N)cc2)n1 [Compound 22],35,12200,–
N#Cc1ccc(Nc2nc(N)cc(Cc3c(Cl)cccc3Cl)n2)cc1 [Compound 23],1,47900,–
CNc1cc(Cc2c(Cl)cccc2Cl)nc(Nc2ccc(C#N)cc2)n1 [Compound 24],20,54000,–
Nc1cc(Cc2c(Cl)cccc2Cl)nc(Nc2ccc(Br)cc2)n1 [Compound 27],17,–,> 20000

Structure (SMILES),IC50 [1] [nM],CC50 [2] [nM],"CC50 [2, 3] [nM]"
Nc1nc(Cc2c(Cl)cccc2Cl)cc(Nc2ccc(Br)cc2)n1 [Compound 28],79,–,> 20000
Nc1cc(Cc2c(Cl)cccc2Cl)nc(Nc2ccc(Cl)cc2)n1 [Compound 29],15,–,> 20000
Nc1nc(Cc2c(Cl)cccc2Cl)cc(Nc2ccc(Cl)cc2)n1 [Compound 30],88,–,> 20000
Nc1nc(Cc2c(Cl)cccc2Cl)cc(Nc2ccc(Br)cn2)n1 [Compound 31],24,–,86800
Nc1cc(Cc2c(Cl)cccc2Cl)nc(Nc2ccc(Br)cn2)n1 [Compound 32],403,–,> 100000
Nc1cc(Cc2c(Cl)cccc2Cl)nc(Nc2ccc(F)cc2)n1 [Compound 33],42,–,43400
Nc1nc(Cc2c(Cl)cccc2Cl)cc(Nc2ccc(F)cc2)n1 [Compound 34],319,–,57800
Cc1ccc(Nc2nc(N)cc(Cc3c(Cl)cccc3Cl)n2)cc1 [Compound 35],103,–,42300
Cc1ccc(Nc2cc(Cc3c(Cl)cccc3Cl)nc(N)n2)cc1 [Compound 36],323,–,> 100000
Nc1cc(Cc2c(Cl)cccc2Cl)nc(Nc2ccccc2)n1 [Compound 37],443,–,33400
Nc1nc(Cc2c(Cl)cccc2Cl)cc(Nc2ccccc2)n1 [Compound 38],2450,–,32400
N#Cc1ccc(Nc2cc(Cc3c(Cl)cccc3Cl)nc(NCCO)n2)cc1 [Compound 40],253,–,40200
CNc1nc(Cc2c(Cl)cccc2Cl)cc(Nc2ccc(C#N)cc2)n1 [Compound 41],1990,–,34200
N#Cc1ccc(Nc2cc(Cc3c(Cl)cccc3Cl)nc(NCCCO)n2)cc1 [Compound 42],352,–,35500
N#Cc1ccc(Nc2cc(Cc3c(Cl)cccc3Cl)nc(NCCCCO)n2)cc1 [Compound 43],603,–,> 100000
N#Cc1ccc(Nc2cc(Cc3c(Cl)cccc3Cl)nc(N)n2)cc1 [Compound 45],10,–,56300
Cc1c(Cc2c(Cl)cccc2Cl)nc(N)nc1Nc1ccc(C#N)cc1 [Compound 46],45200,–,> 100000
Cc1c(Cc2c(Cl)cccc2Cl)nc(N)nc1Nc1ccc(Br)cc1 [Compound 48],44200,–,> 100000
Cc1c(N)nc(Nc2ccc(Br)cc2)nc1Cc1c(Cl)cccc1Cl [Compound 49],58,–,45200
N#Cc1ccc(Nc2cc(Oc3c(Cl)cccc3Cl)nc(N)n2)cc1 [Compound 50],518,52000,–
N#Cc1ccc(Nc2cc(N)nc(Cc3c(Cl)cccc3Cl)n2)cc1 [Compound 51],452,> 100000,–

Structure (SMILES),IC50 [1] [nM],CC50 [2] [nM],"CC50 [2, 3] [nM]"
"Cc1cc(C)c(Nc2ccnc(Nc3ccc(C#N)cc3)n2)c(C)c1 [Compound 53, 4-[[4-[(2,4,6-trimethyl-phenyl)amino]-2-pyrimidinyl]amino]benzonitrile hydrochloride (1:1)]",0.6,–,1300
Cc1cc(Br)cc(C)c1Nc1ccnc(Nc2ccc(C#N)cc2)n1 [Compound 56],2.3,1900,–
Cc1cccc(C)c1Nc1ccnc(Nc2ccc(C#N)cc2)n1 [Compound 57],0.7,800,–
N#Cc1ccc(Nc2nccc(Sc3c(Cl)cccc3Cl)n2)cc1 [Compound 59],1.2,> 100000,–
N#Cc1ccc(Nc2nccc(Oc3c(Cl)cc(Cl)cc3Cl)n2)cc1 [Compound 60],290,> 100000,–
CC(C)c1cc(Br)c(Nc2ccnc(Nc3ccc(C#N)cc3)n2)c(Br)c1 [Compound 62],3.2,8700,–
Cc1cc(C)c(Nc2nc(Nc3ccc(C#N)cc3)ncc2C)c(C)c1 [Compound 63],1.7,300,–
Cc1cc(Cl)cc(Cl)c1Oc1ccnc(Nc2ccc(C#N)cc2)n1 [Compound 64],120,> 100000,–
N#Cc1ccc(Nc2nccc(Nc3c(Cl)cccc3Cl)n2)cc1 [Compound 65],180,200,–
N#Cc1ccc(Nc2nccc(Nc3c(Cl)cc(F)cc3Br)n2)cc1 [Compound 67],2.4,400,–
Cc1cc(Cl)cc(Cl)c1Nc1ccnc(Nc2ccc(C#N)cc2)n1 [Compound 68],1,1400,–
"Cc1cc(C#N)cc(C)c1Nc1ccnc(Nc2ccc(C#N)cc2)n1 [Compound 69, 4-[[2-[(cyanophenyl)amino]-4-pyrimidinyl]amino]-3,5-dimethylbenzonitrile]",0.4,–,4700
N#Cc1ccc(Nc2nccc(Nc3c(F)cc(Br)cc3Br)n2)cc1 [Compound 70],0.6,5800,–
Cc1cc(C)c(N(C)c2ccnc(Nc3ccc(C#N)cc3)n2)c(C)c1 [Compound 71],6.3,45800,–
N#Cc1ccc(Nc2nccc(Nc3c(Cl)cc(Cl)cc3Cl)n2)cc1 [Compound 72],0.7,500,–
Cc1cc(C)c(Sc2ccnc(Nc3ccc(C#N)cc3)n2)c(C)c1 [Compound 73],3.6,> 100000,–
Cc1cc(Cl)cc(Br)c1Oc1ccnc(Nc2ccc(C#N)cc2)n1 [Compound 74],10,> 100000,–
Cc1cc(Cl)cc(C)c1Nc1ccnc(Nc2ccc(C#N)cc2)n1 [Compound 75],2.1,1900,–
N#Cc1ccc(Nc2nccc(Nc3c(Cl)cc(C#N)cc3Cl)n2)cc1 [Compound 76],3.3,5200,–
N#Cc1ccc(Nc2nccc(Nc3c(Cl)cc(OC(F)(F)F)cc3Cl)n2)cc1 [Compound 77],3,9600,–
Cc1cnc(Nc2ccc(C#N)cc2)nc1Nc1c(C)cc(C#N)cc1C [Compound 83],0.8,–,–
